The target of this experiment is T1, IGFR kinase (Homo sapiens, UniProt P08069).
T1 construct: purchased Millipore
T1 sequence (P08069 31-1367): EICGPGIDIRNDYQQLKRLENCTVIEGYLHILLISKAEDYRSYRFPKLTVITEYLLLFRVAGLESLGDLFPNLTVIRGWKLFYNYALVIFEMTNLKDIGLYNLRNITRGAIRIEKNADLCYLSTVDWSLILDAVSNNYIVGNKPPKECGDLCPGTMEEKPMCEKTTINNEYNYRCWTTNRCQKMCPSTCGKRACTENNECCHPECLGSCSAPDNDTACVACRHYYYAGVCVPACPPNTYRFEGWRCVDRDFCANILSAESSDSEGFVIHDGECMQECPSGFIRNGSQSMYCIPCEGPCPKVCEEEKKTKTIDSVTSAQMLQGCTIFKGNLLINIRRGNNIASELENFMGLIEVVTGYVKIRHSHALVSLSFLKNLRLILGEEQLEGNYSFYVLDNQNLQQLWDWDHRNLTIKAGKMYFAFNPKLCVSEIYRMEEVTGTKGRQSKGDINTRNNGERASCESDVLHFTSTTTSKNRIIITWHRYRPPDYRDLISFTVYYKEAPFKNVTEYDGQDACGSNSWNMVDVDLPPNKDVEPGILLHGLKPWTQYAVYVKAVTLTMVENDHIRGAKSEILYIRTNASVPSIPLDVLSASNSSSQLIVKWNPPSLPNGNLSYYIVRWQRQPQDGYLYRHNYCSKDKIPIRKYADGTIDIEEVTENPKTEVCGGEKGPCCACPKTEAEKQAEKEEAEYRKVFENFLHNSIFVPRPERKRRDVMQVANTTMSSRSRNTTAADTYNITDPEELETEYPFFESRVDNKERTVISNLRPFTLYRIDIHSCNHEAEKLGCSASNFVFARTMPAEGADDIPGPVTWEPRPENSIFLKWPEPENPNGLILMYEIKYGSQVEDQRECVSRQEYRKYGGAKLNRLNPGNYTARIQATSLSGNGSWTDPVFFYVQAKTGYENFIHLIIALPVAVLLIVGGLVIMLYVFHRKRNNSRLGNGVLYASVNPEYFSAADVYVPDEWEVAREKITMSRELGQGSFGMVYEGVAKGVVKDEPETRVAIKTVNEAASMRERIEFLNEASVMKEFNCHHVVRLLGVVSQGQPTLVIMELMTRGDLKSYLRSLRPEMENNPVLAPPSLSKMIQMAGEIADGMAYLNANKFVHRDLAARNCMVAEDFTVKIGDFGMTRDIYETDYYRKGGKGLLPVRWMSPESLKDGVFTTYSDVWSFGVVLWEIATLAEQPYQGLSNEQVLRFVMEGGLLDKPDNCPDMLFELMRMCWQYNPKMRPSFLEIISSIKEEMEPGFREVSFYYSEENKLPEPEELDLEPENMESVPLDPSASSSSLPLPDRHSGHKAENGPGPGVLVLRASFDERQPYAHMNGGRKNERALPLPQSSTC
The experiment can be described thus: Enzyme assay (c), IGFR kinase, Caliper LabChip. In kind it is biochemical. The note with it: 30 nM IGFR kinase, 6 uM ATP, 3 uM peptide mix; read-out: IGFR IC50. The method, then: For Echo dosing the solvent was 100% DMSO. A master plate was prepared with 40 ul of 10 mM stock solution of the test compound in DMSO in quadrant 1 of a Labcyte 384 well plate. A 1 in 100 dilution was made from quadrant 1 into quadrant 2 by removing 0.4 ul and adding it to 39.6 ul of DMSO. Subsequent 1 in 100 dilutions were made into quadrant 3 from quadrant 2 and quadrant 4 from quadrant 3.
Multiple 2.5 nl droplets were dispensed from each quadrant of the master plate to generate the dose range that was required in the test. The dose range most commonly used was as follows: 100 uM, 30 uM, 10 uM, 3 uM, 1 uM, 0.3 uM, 0.1 uM, 0.03 uM, 0.01 uM, 0.003 uM, 0.001 uM, 0.0001 uM. Each well was backfilled with dimethyl sulfoxide (DMSO) to a total volume of 120 nl, such that when the enzyme and substrate mix was added the final DMSO concentration was 1%.
DMSO was added to max control wells as 120 nl, minimum control wells were treated with 120 nl of compound at a concentration that inhibited the enzyme activity 100%.
Integration of the substrate and product peaks was carried out using Caliper LabChip software and IC50 curves were calculated using Origin™ software.
One may read the IC50 as the concentration needed to halve the response being measured. For `COc1cc(N2CCN(C(=O)[C@H](C)OC)CC2)ccc1Nc1ncc(Cl)c(-c2cnc3ccccn23)n1` [Example 25.3, (2S)-1-[4-[4-[(5-chloro-4-imidazo[1,2-a]pyridin-3-yl-pyrimidin-2-yl)amino]-3-methoxy-phenyl]piperazin-1-yl]-2-methoxy-propan-1-one], the IC50 amounted to 14 nM.
As for `COCCCNCc1ccc(Nc2ncc(Cl)c(-c3cnc4ccccn34)n2)c(OC)c1` [Example 21.9, 5-chloro-4-imidazo[1,2-a]pyridin-3-yl-N-[2-methoxy-4-[(3-methoxypropylamino)methyl]phenyl]pyrimidin-2-amine], the IC50 turned out to be 17 nM.
The value for `COc1ccc(N2CCNCC2)cc1Nc1ncc(F)c(-c2cnn3ccccc23)n1` [Example 174, 5-fluoro-N-(2-methoxy-5-piperazin-1-yl-phenyl)-4-pyrazolo[1,5-a]pyridin-3-yl-pyrimidin-2-amine] was 63 nM; that for `CNCC(=O)N1CCC(c2ccc(Nc3ncc(F)c(-c4cnn5ccccc45)n3)c(OC)c2)CC1` [Example 238, 1-[4-[4-[(5-fluoro-4-pyrazolo[1,5-a]pyridin-3-yl-pyrimidin-2-yl)amino]-3-methoxy-phenyl]-1-piperidyl]-2-(methylamino)ethanone] was 8 nM; that for `COc1ccc(OC[C@H]2CCCN2)cc1Nc1ncc(Cl)c(-c2cnc3ccccn23)n1` [Example 6.4, 5-chloro-4-imidazo[1,2-a]pyridin-3-yl-N-[2-methoxy-5-[[(2R)-pyrrolidin-2-yl]methoxy]phenyl]pyrimidin-2-amine] was 12 nM.
For the compound `COc1cc(N2CCN(CCC#N)CC2)ccc1Nc1ncc(Cl)c(-c2cnc3ccccn23)n1` [Example 49, 3-[4-[4-[(5-chloro-4-imidazo[1,2-a]pyridin-3-yl-pyrimidin-2-yl)amino]-3-methoxy-phenyl]piperazin-1-yl]propanenitrile], the IC50 was determined as 14 nM.
As for `CNCC(=O)N1CCN(c2ccc(Nc3ncc(C)c(-c4cnn5ccccc45)n3)c(OC)c2)CC1` [Example 160, 1-[4-[3-methoxy-4-[(5-methyl-4-pyrazolo[1,5-a]pyridin-3-yl-pyrimidin-2-yl)amino]phenyl]piperazin-1-yl]-2-(methylamino)ethanone], the IC50 is 14 nM.
As for `COc1cc(C2CCN(C(=O)CO)CC2)ccc1Nc1ncc(Cl)c(-c2cnc3c(F)cccn23)n1` [Example 179, 1-[4-[4-[[5-chloro-4-(8-fluoroimidazo[1,2-a]pyridin-3-yl)pyrimidin-2-yl]amino]-3-methoxy-phenyl]-1-piperidyl]-2-hydroxy-ethanone], the figure is 8 nM; as for `COc1cc(OC2CN(CC(C)(C)O)C2)ccc1Nc1ncc(Cl)c(-c2cnc3ccccn23)n1` [Example 63, 1-[3-[4-[(5-chloro-4-imidazo[1,2-a]pyridin-3-yl-pyrimidin-2-yl)amino]-3-methoxy-phenoxy]azetidin-1-yl]-2-methyl-propan-2-ol], 16 nM; as for `COc1cc(C2CCN(C(=O)[C@@H](C)O)CC2)ccc1Nc1ncc(Cl)c(-c2cnn3ccccc23)n1` [Example 138, (2R)-1-[4-[4-[(5-chloro-4-pyrazolo[1,5-a]pyridin-3-yl-pyrimidin-2-yl)amino]-3-methoxy-phenyl]-1-piperidyl]-2-hydroxy-propan-1-one], 3 nM.
Regarding `COc1cc(CC(=O)O)ccc1Nc1ncc(Cl)c(-c2cnc3ccccn23)n1` [Example 34A, 2-(4-(5-chloro-4-(imidazo[1,2-a]pyridin-3-yl)pyrimidin-2-ylamino)-3-methoxyphenyl)acetic acid], the IC50 was determined as 132 nM.
The value for `COc1cc(N2CCNC(=O)C2)ccc1Nc1ncc(F)c(-c2cnc3ccccn23)n1` [Example 88, 4-[4-[(5-fluoro-4-imidazo[1,2-a]pyridin-3-yl-pyrimidin-2-yl)amino]-3-methoxy-phenyl]piperazin-2-one] was 23 nM; that for `COc1cc(N2CCN(C[C@H](C)O)CC2)ccc1Nc1ncc(Cl)c(-c2cnc3ccccn23)n1` [Example 50, (2S)-1-[4-[4-[(5-chloro-4-imidazo[1,2-a]pyridin-3-yl-pyrimidin-2-yl)amino]-3-methoxy-phenyl]piperazin-1-yl]propan-2-ol] was 8 nM; that for `CNCC(=O)N1CCC(c2ccc(Nc3ncc(C)c(-c4cnn5ccccc45)n3)c(OC)c2)CC1` [Example 237, 1-[4-[3-methoxy-4-[(5-methyl-4-pyrazolo[1,5-a]pyridin-3-yl-pyrimidin-2-yl)amino]phenyl]-1-piperidyl]-2-(methylamino)ethanone] was 8 nM.
With `COc1cc(N2CC3CN(CCO)CC(C2)O3)ccc1Nc1ncc(C)c(-c2cnn3ccccc23)n1` [Example 166, 2-[7-[3-methoxy-4-[(5-methyl-4-pyrazolo[1,5-a]pyridin-3-yl-pyrimidin-2-yl)amino]phenyl]-9-oxa-3,7-diazabicyclo[3.3.1]nonan-3-yl]ethanol], the IC50 is 17 nM.
As for `COc1cc(C2CCN(C(=O)CO)CC2)ccc1Nc1ncc(C#N)c(-c2cnn3ccccc23)n1` [Example 240, 2-[4-[1-(2-hydroxyacetyl)-4-piperidyl]-2-methoxy-anilino]-4-pyrazolo[1,5-a]pyridin-3-yl-pyrimidine-5-carbonitrile], the figure is 3 nM; as for `COc1cc(C2CCNCC2)ccc1Nc1ncc(Cl)c(-c2cnc3ccc(F)cn23)n1` [Example 247, 5-chloro-4-(6-fluoroimidazo[1,2-a]pyridin-3-yl)-N-[2-methoxy-4-(4-piperidyl)phenyl]pyrimidin-2-amine], 3 nM; as for `CCc1ccn2c(-c3nc(Nc4ccc(N5CCN(C(C)=O)CC5)cc4OC)ncc3Cl)cnc2c1` [Example 126.8, 1-[4-[4-[[5-chloro-4-(7-ethylimidazo[1,2-a]pyridin-3-yl)pyrimidin-2-yl]amino]-3-methoxyphenyl]piperazin-1-yl]ethanone], 21 nM.
As for `COc1cc(N2CCN(C(C)=O)CC2)ccc1Nc1ncc(C2CC2)c(-c2cnn3ccccc23)n1` [Example 234, 1-[4-[4-[(5-cyclopropyl-4-pyrazolo[1,5-a]pyridin-3-yl-pyrimidin-2-yl)amino]-3-methoxy-phenyl]piperazin-1-yl]ethanone], the figure is 31 nM; as for `COc1cc(OC2CCN(C)C2)ccc1Nc1ncc(Br)c(-c2cnc3ccccn23)n1` (centres unmarked) [Example 123, 5-bromo-4-imidazo[1,2-a]pyridin-3-yl-N-[2-methoxy-4-(1-methylpyrrolidin-3-yl)oxy-phenyl]pyrimidin-2-amine], 5 nM.
For `COc1cc2c(cc1Nc1ncc(Cl)c(-c3cnn4ccccc34)n1)N(C(=O)CN(C)C)CC2` [Example 157, 1-[6-[(5-chloro-4-pyrazolo[1,5-a]pyridin-3-yl-pyrimidin-2-yl)amino]-5-methoxy-indolin-1-yl]-2-(dimethylamino)ethanone], the IC50 is 1 nM.
As for `COc1cc(OC2CN(C(=O)N(C)C)C2)ccc1Nc1ncc(Cl)c(-c2cnc3ccccn23)n1` [Example 69, 3-[4-[(5-chloro-4-imidazo[1,2-a]pyridin-3-yl-pyrimidin-2-yl)amino]-3-methoxy-phenoxy]-N,N-dimethyl-azetidine-1-carboxamide], the figure is 32 nM; as for `COc1cc(C2CCNCC2)ccc1Nc1ncc(F)c(-c2cnc3ccccn23)n1` [Example 86, 5-fluoro-4-imidazo[1,2-a]pyridin-3-yl-N-[2-methoxy-4-(4-piperidyl)phenyl]pyrimidin-2-amine], 12 nM.

The values above are taken from patent US20100105655A1, “NOVEL COMPOUNDS 515” (ASTRAZENECA AB, priority 2008, published 2010).
